# Measured values published in patent publication US20230355606A1, “LONG-ACTING FORMULATIONS” (Janssen Pharmaceutica NV, priority 2020, published 2023).
# Like-named read-outs stand apart in the source and are kept apart here.
# How the values were obtained:
# M. tuberculosis H37Rv = assay type: in vivo, Mycobacterium tuberculosis; conditions: for reduction of mean CFU count compared to untreated mice: R10 (5/7); for Mean (SD) log10 M. tuberculosis CFU/lung: rifampin 10 mg/kg, 5/7, gavage, mice
# [1] = test system: mycobacterial ATP synthase versus eukaryotic mitochondrial ATP synthase; conditions: cited from earlier work
# M. tuberculosis = conditions: mice; cited from earlier work
# Mycobacterium leprae = conditions: M. lepra, mice; cited from earlier work
Structure (SMILES),reduction of mean CFU count compared to untreated mice (M. tuberculosis H37Rv; after 4 weeks of treatment),reduction of mean CFU count compared to untreated mice (M. tuberculosis H37Rv; after 8 weeks of treatment),reduction of mean CFU count compared to untreated mice (M. tuberculosis H37Rv; after 12 weeks of treatment) [log10 CFU/lung],Mean (SD) log10 M. tuberculosis CFU/lung (M. tuberculosis H37Rv; Week 4),Mean (SD) log10 M. tuberculosis CFU/lung (M. tuberculosis H37Rv; Week 8),Mean (SD) log10 M. tuberculosis CFU/lung (M. tuberculosis H37Rv; Week 12),selectivity index [1],minimal dose killing 99% of bacilli (M. tuberculosis) [mg/kg/wk],minimal dose killing 99% of bacilli (Mycobacterium leprae) [mg/kg/wk]
"CO[C@H]1/C=C/O[C@@]2(C)Oc3c(C)c(O)c4c(O)c(c(/C=N/N5CCN(C)CC5)c(O)c4c3C2=O)NC(=O)/C(C)=C\C=C\[C@H](C)[C@H](O)[C@@H](C)[C@@H](O)[C@@H](C)[C@H](OC(C)=O)[C@@H]1C [R, rifampin]",approximately 1 log10 CFU/lung,about 2 log10 CFU/lung,~3,3.39 (0.46) log10 CFU/lung,2.74 (0.62) log10 CFU/lung,1.27 (0.85) log10 CFU/lung,,,
COc1nc2ccc(Br)cc2cc1[C@@H](c1ccccc1)[C@@](O)(CCN(C)C)c1cccc2ccccc12 [bedaquiline],,,,,,,more than 20000,30,< 5.0
